Measured values: patent US20060247261A1 (priority 2002, published 2006)

Molecular target: T1, human cannabinoid CB2 receptor (Homo sapiens, UniProt P34972)
T1 construct: expressed in transfected cells; host or cells: Saccharomyces cerevisiae strain MMY23 (expresses a chimeric Gpa1/human Galpha-i3 G-protein alpha subunit)
Assay: Cannabinoid CB2 receptor agonist activity, yeast reporter assay
Type: cell-based
Conditions: for Emax: read-out: efficacy (Emax) at the cloned human cannabinoid CB2 receptor
Outline: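 Agonism read in S. cerevisiae strain MMY23 with the human CB2 receptor integrated at ura3 under the GPD promoter, coupled through a Gpa1/human Gαi3 C-terminal chimeric G-alpha. Compounds were added in DMSO (1% final). Fluorescence versus concentration was fitted by four-parameter fit to give a concentration effect value.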

T1 sequence (P34972 whole entry): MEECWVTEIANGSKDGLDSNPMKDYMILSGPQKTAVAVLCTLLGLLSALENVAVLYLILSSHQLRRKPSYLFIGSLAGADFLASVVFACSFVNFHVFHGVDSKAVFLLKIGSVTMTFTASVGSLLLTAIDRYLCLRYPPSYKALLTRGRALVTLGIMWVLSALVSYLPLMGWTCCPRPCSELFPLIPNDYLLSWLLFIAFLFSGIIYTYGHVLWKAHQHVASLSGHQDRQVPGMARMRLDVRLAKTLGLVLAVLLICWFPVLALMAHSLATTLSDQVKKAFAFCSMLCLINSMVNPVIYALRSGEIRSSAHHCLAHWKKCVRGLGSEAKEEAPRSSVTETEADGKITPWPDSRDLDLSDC

Structure (SMILES)	EC50	Emax
O=C(O)Cc1cccc(Nc2ncc(C(=O)NCc3ccc(F)cc3)c(C(F)(F)F)n2)c1 [Example 112, {3-[(4-Fluoro-benzylcarbamoyl)-trifluoromethyl-pyrimidin-2-ylamino]-phenyl}-acetic acid]	> 1000 nM	< 50%
O=C(O)c1cc(Cl)cc(Nc2ncc(C(=O)NCc3ccc(F)cc3)c(C(F)(F)F)n2)c1 [Example 113, 3-Chloro-5-[(4-fluoro-benzylcarbamoyl)-trifluoromethyl-pyrimidin-2-ylarnino]-benzoic acid]	> 1000 nM	< 50%
O=C(NCc1ccc(F)cc1)c1cnc(Nc2cc(C(F)(F)F)cc(C(F)(F)F)c2)nc1C(F)(F)F [Example 114, 2-(3,5-Ditrifluoromethyl-phenylamino)-4-trifluoromethyl-pyrimidine-5-carboxylic acid 4-fluoro-benzylamide]	> 1000 nM	< 50%
